Molecules are shown by their SMILES.

The assay relates to Huh7.5 cells. Kind of assay: Quantitative RT-PCR of hepatocyte differentiation markers in cultured Huh7.5 cells. The class given is cell-based, human. To be noted: Huh7.5 cells grown 3 weeks, relative to FBS. On the procedure:
RNA was isolated from cells using Trizol, according to the instructions of the manufacturer. cDNA was produced from the RNA using Quantitect Reverse Transcription kit (Qiagen). Gene specific primer-probe sets were designed by Applied Biosystems. An Applied Biosystems 7900HT Fast Real-Time PCR system was used for the quantitation of gene products. Gene expression was calculated relative to HPRT according to Pfaffl (Pfaffl M W. Nucleic Acids Res 29: e45, 2001).
To further evaluate the effect of culturing cells in HS-containing medium, and to assess whether these cells underwent differentiation to a primary hepatocyte-like cell, level of expression of hepatocyte differentiation marker were assayed at 7 days and 21 days after transfer of Huh7.5 cells into HS-supplemented medium. After 7 days only minor changes in hepatocyte markers were observed. (FIG. 3A) However, after 21 days, the expression of the hepatic differentiation markers albumin and alpha1-antiTrypsin was increased approximately 4 fold in cells grown in human serum compared to FBS. The level of expression of these proteins is similar to the level of expression of human primary hepatocytes in culture.
DMSO, (dimethyl sulfoxide) has been reported to induce growth arrest in HuH-7 or -derived cells, and other hepatoma cells. (Sainz et al. (2006) J Virol 80: 10253-10257). […]

Consider `C[S+](C)[O-]` [DMSO, dimethyl sulfoxide], for which the Albumin expression entry was “slight increase”.

For the origin of these results see US9969979B2, “Methods for producing cells having a phenotype of a primary human hepatocytes and compositions” (The Governors of the University of Alberta, priority 2012, dated 2018).
